In PMC9530963, “A cathelicidin antimicrobial peptide from Hydrophis cyanocinctus inhibits Zika virus infection by downregulating expression of a viral entry factor” (The Journal of Biological Chemistry, 2022):

Tests used:
ZIKV [1] = assay: Leakage of ZIKV genomic RNA (micrococcal nuclease digestion); design: species or system ZIKV strain PRVABC59; details: 1, 20, and 40 μM, 37 °C 2 h; micrococcal nuclease 37 °C 4 h; qPCR of PrM, E, Cap
Procedure: Figure 8 Hc-CATH directly inactivates ZIKV particles by disrupting viral membrane.A, schematic diagram of B–G (Hc-CATH-Vero-pre). B–G, direct inactivation of ZIKV by Hc-CATH. ZIKVs (MOI = 1) were incubated with Hc-CATH (2.5 μM), AC5 (2.5 μM), LL-37 (2.5 μM), or PBS (peptide solvent) at 37 °C for 2 h, and then the ZIKV–PBS mixture and ZIKV–peptide mixture were centrifugated at 100,000g for 70 min. The pellets were washed with PBS and centrifugated at 100,000g for 70 min again. The pellets were resuspended in PBS, added to Vero cells, and incubated for 2 h. Cells were washed with PBS and cultured in fresh DMEM containing 2% FBS. […] Absorbance at 450 nm was measured after reactions were stopped using 0.5 M sulfuric acid. […] After the residual RNase was inactivated, the undigested genomic RNA in the intact ZIKV particles was extracted and quantified by testing the genes of PrM, E, and Cap proteins, respectively. ∗∗p < 0.01 and ∗∗∗p < 0.001.
For assay of the disruption of viral membrane by Hc-CATH, ZIKV (about 10^5 PFU) was incubated with Hc-CATH (1, 20, and 40 μM), PBS, or 1% Triton X-100 (positive control) at 37 °C for 2 h. […] The residual RNase was inactivated, the undigested genomic RNA in the intact ZIKV particles was extracted and quantified by testing viral genes encoding membrane protein (PrM), E protein, and capsid (Cap) protein, respectively ([43]).

ZIKV [2] = assay: Prophylactic efficacy against ZIKV infection in mice; assay type: in vivo
Excerpt: At 4, 8, and 3 days post ZIKV inoculation, C57BL/6J mice, Ifnar1^−/− mice, and pregnant C57BL/6J mice were sacrificed, respectively. Tissues and fetal mice were collected for testing ZIKV RNA by qPCR. ns, not significant, ∗p < 0.05, ∗∗p < 0.01, and ∗∗∗p < 0.001. Hc-CATH, a cathelicidin antimicrobial peptide identified from the sea snake Hydrophis cyanocinctus; PFU, plaque-forming unit; qPCR, quantitative PCR; ZIKV, Zika virus.
C57BL/6J mice, Ifnar1^−/− mice, and pregnant C57BL/6J mice were sacrificed at 4, 8, and 3 days post ZIKV inoculation, respectively. Tissues and fetal mice were collected for testing ZIKV RNA level by qPCR.

ZIKV [3] = assay: ZIKV replication stage, A549 cells (peptide added after infection); assay type: cell-based, ZIKV strain PRVABC59; details: 2.5 μM after ZIKV infection, 48 h; NS3 Western blot
Procedure: B–I, Vero (B–G), A549 (H), or U251 (I) cells were incubated with ZIKV (MOI = 1) at 37 °C for 2 h, washed with PBS, and transferred with fresh DMEM containing 2% FBS and Hc-CATH (2.5 μM), AC5 (2.5 μM), LL-37 (2.5 μM), or PBS (solvent of peptide). After culture at 37 °C for 48 h, intracellular ZIKV RNA (B), NS3 protein (C, D, H, and I), E protein level (E, the scale bar represents 50 μm), and extracellular ZIKV titer (F and G) were detected by qPCR, Western blot, immunofluorescence staining, and plaque-forming assay, respectively.
Vero cells were incubated with ZIKV (MOI = 1) at 37 °C for 2 h, washed three times with PBS, and transferred with fresh DMEM containing 2% FBS and Hc-CATH (2.5 μM), AC5 (2.5 μM), LL-37 (2.5 μM), or PBS. After culture at 37 °C for 48 h, intracellular ZIKV RNA, NS3 protein, E protein, and extracellular ZIKV titer were detected by qPCR, WB, IF, and plaque-forming assay, respectively. The effect of Hc-CATH on ZIKV replication stage was further tested in A549 and U251 cells under the same condition, and intracellular ZIKV NS3 protein was detected by WB.

Vero, A549 or U251 cells = details: 1.25, 2.5, and 5 μM, 48 h, 37 °C, CCK-8
Procedure: Vero, A549 or U251 cells (1×10^4 cells/well) were seeded
in 96-well plates . Series of two -fold peptide dilutions in DMEM were added to each well to
give final concentrations from 0.78125 to 50 μM. After incubation at 37℃ for 48 h, cell
counting assay kit (CCK -8) was applied to determine the cytotoxicity. ***P < 0.001, ns, not

COX-2 = assay: Enzymatic activity of COX-2 (inhibitor screening kit); assay type: biochemical; details: 10 μM, incubated with COX-2 at 37 °C for 10 min
Procedure: Figure 6 Hc-CATH downregulates AXL via inhibiting COX-2/PGE2/AC/PKA pathway.A, effect of Hc-CATH on COX-2 protein level. A549 cells were incubated with Hc-CATH (1.25, 2.5, or 5 μM) or PBS (solvent of Hc-CATH) at 37 °C for 24 h, COX-2 protein level was examined by Western blot (upper panel) and analyzed by ImageJ (lower panel). B, effect of Hc-CATH on the enzymatic activity of COX-2. Hc-CATH (1.25, 2.5, 5, and 10 μM) or PBS was incubated with COX-2. After incubation at 37 °C for 10 min, the enzymatic activity of COX-2 was detected by enzyme activity inhibitor screening kit. Celecoxib (COX-2 inhibitor, 100 nM) was used as positive control. C, effect of Hc-CATH on PGE2 production. A549 cells were incubated with Hc-CATH (5 μM) at 37 °C. After incubation for 24 h, the level of PGE2 in the cell supernatant was detected by ELISA. D and E, effect of AC (D) and PKA (E) on Hc-CATH-induced AXL downregulation. […] After incubation for 24 h, AXL protein level was examined by Western blot (upper panel of D and E) and analyzed by ImageJ (lower panel of D and E). ns, not significant, ∗∗p < 0.01, and ∗∗∗p < 0.001.
The effect of Hc-CATH on the enzymatic activity of COX-2 was detected by enzyme activity inhibitor screening kit. […] After incubation at 37 °C for 10 min, the enzymatic activity of COX-2 was detected by the kit. […]

## KFFKRLLKSVRRAVKKFRKKPRLIGLSTLL [Hc-CATH, cathelicidin antimicrobial peptide identified from the sea snake Hydrophis cyanocinctus]
ZIKV [1]
  genomic RNA of peptide-treated virions (leakage): digested by micrococcal nuclease
ZIKV [2]; C57BL/6J mice, prophylactic and therapeutic (Figs. 11E and 12E)
  anti-ZIKV efficacy in vivo compared with positive peptides: comparable with or even better than that of AC5 and LL-37
ZIKV [2]; i.v. peptide 2 h before i.v. ZIKV 10^6 PFU/mouse, 4 days, tissue ZIKV RNA, qPCR
  ZIKV replication in C57BL/6J mice, prophylactic: significantly decreased ZIKV replication
ZIKV [2]; i.v. peptide 2 h before i.v. ZIKV 10^6 PFU/mouse, 8 days, tissue ZIKV RNA, qPCR
  ZIKV replication in Ifnar1−/− mice, prophylactic: significantly decreased ZIKV replication
ZIKV [2]; pregnant C57BL/6J mice, i.v. peptide 2 h before i.v. ZIKV 10^6 PFU/mouse, 3 days, qPCR
  ZIKV replication in fetal placenta and fetal mice, prophylactic: significantly decreased ZIKV replication
ZIKV [3]
  ZIKV infection in A549 cells, peptide added after infection: did not inhibit ZIKV infection
Vero, A549 or U251 cells
  cytotoxicity against mammalian cells: did not have cytotoxicity
COX-2
  inhibitory rate against COX-2 activity: about 80%
